Experiments:
[1] = tested on: Calu-3 cell line
[2] = target: ACE2 (Homo sapiens, UniProt Q9BYF1); experiment: In vitro fluorescence ligand binding assay (relative ACE2 inhibition); details: for remaining activity at 100 µM: read-out: % of control/blank fluorescence; for IC50: fluorescence binding assay, relative ACE2 inhibition
Protocol: A fluorescence ligand bind assay (Lora Benoit, Vinayak Shenoy, Simon Meykler, Ali Mohseni. SARS-COV-2 spike protein 13-mer subdomain corresponds to the drug-binding domain of glutamyl-propyl-tRNA synthetase 1 and is targetable by halofuginone, 22 Jul. 2021, PREPRINT (Version 1) available at Research Square [world wide web at doi.org/10.21203/rs.3.rs-738132/v1]) used to test the binding of various flavonoids. Fluorescence values increased over time (likely due to evaporation at 37° C.), but differences in fluorescence intensity after a kinetic read may be used to calculate relative ACE2 inhibition.

[3] = target: T1, SARS-COV-2 spike protein (Severe acute respiratory syndrome coronavirus 2, UniProt P0DTC2); experiment: Surface plasmon resonance (SPR) analysis; format: binding; details: for Activity (actual) / Activity (calculated) / Rmax (actual) / Rmax (calculated): SPR, analyte 0.4-100 μM, SCK; for Rmax (actual) / Rmax (calculated): 25° C.
T1 construct: Target/ligand: SARS-COV2 RBD; 4815 RU captured; purchased R&D Systems, Inc., Minneapolis, MN AVI10500

[4] = SPR FIG. 15A, 50 μM, SARS-COV2 RBD on SA chip

ACE2, sequence (Q9BYF1 18-805): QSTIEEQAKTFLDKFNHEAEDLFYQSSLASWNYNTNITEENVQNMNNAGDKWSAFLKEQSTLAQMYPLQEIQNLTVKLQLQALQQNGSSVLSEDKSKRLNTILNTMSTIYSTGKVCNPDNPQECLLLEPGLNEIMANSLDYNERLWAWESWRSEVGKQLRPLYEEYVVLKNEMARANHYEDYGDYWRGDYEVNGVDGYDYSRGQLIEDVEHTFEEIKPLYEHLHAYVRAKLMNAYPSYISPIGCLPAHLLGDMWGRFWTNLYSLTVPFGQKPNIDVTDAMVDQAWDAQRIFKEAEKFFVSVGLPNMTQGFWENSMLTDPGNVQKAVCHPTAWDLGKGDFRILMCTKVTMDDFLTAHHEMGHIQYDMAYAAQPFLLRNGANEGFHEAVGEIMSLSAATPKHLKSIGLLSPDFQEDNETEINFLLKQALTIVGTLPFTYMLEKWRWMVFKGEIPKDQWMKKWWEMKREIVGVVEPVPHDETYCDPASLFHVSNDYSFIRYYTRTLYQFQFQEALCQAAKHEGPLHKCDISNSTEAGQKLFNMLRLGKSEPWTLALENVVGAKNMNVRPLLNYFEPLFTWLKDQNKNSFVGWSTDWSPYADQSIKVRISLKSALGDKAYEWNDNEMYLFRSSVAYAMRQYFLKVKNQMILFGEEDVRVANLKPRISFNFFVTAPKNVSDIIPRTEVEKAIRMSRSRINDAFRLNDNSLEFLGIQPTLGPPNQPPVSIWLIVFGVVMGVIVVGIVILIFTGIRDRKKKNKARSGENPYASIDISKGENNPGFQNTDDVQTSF

Row | Compound | remaining activity at 100 µM [2] | IC50 [2] | Activity (actual) ([3]; SARS-COV2 RBD on SA chip) | Activity (calculated) ([3]; SARS-COV2 RBD on SA chip) | Rmax (actual) ([3]; SARS-COV2 RBD on SA chip) | Rmax (calculated) ([3]; SARS-COV2 RBD on SA chip) | other results
1 | COc1ccc(C[C@H](N)C(=O)N[C@H]2[C@@H](O)[C@H](n3cnc4c(N(C)C)ncnc43)O[C@@H]2CO)cc1 [Puromycin, puromycin, reference compound] | – | – | – | – | – | – | Percent viable cells (%) normalized to vehicle control and puromycin ([1]; human): 0.00%
2 | COc1ccc(-c2cc(=O)c3c(OC)c(OC)c(OC)c(OC)c3o2)cc1OC [nobiletin] | 60% | 26.5 µM | – | – | – | – | –
3 | C[C@@H]1O[C@@H](OC[C@H]2O[C@@H](Oc3c(-c4ccc(O)c(O)c4)oc4cc(O)cc(O)c4c3=O)[C@H](O)[C@@H](O)[C@@H]2O)[C@H](O)[C@H](O)[C@H]1O [Rutin, rutin] | 44% | 39.4 µM | 21% | 17% | 21.0 RU | 16.7 RU | –
4 | COc1ccc(C2CC(=O)c3c(O)cc(O)cc3O2)cc1O (stereo not drawn) [hesperetin] | – | – | – | – | – | – | Calu-3 viability after compound + SARS-COV-2 spike protein treatment, in words [1]: decrease of viability in a hesperetin concentration-dependent manner
5 | O=C1C[C@@H](c2ccc(O)cc2)Oc2cc(O)cc(O)c21 [Naringenin, naringenin] | 57% | 36.2 µM | – | – | – | – | –
6 | hesperidin | – | – | 72% | 40% | 72.7 RU | 40.4 RU | viability normalized to SARS-COV-2 spike protein treatment alone and vehicle [1]: over 80%; Activity (50 μM) [3, 4]: 98%; Rmax (50 μM) [3, 4]: 94.3 RU; SPR binding activity, in words ([3]; initial experiment, MCK mode from 10 μM): displayed binding activity with slow dissociation; activity (inhibitory effect on binding to SARS-COV-2 spike protein and ACE2) ([3]; summary statement of Example 1): 82%

Source: patent publication US20250381207A1, “FLAVONOID-CONTAINING COMPOSITIONS AND TREATMENT OF VIRAL DISEASES WITH SAME” (priority 2024, published 2025)
